Assays:
pancreas gene expression = test: Quantitative RT-PCR and NAD/NADH in total pancreas of chronically treated mice; type: in vivo, mouse
Method: Blood glucose was measured using an Accu-Check® Performa (Roche Diagnostics, Meylan, France) and plasma insulin was determined using Insulin ELISA kits (Mercodia, Uppsala, Sweden). For determination of liver triglycerides, liver samples (100 mg) were homogenized and incubated in NonidetP-40 (5%) and supernatants containing triglycerides were collected. Triglycerides concentration was quantified in the supernatant fraction using a colorimetric assay (ab65336, Abcam, Paris, France) by measuring OD at 570 nm. The ratio NAD/NADH was determined using a quantification kit (MAK037; […] Samples were homogenized in the extraction buffer and clarified by centrifugation. Supernatant was deproteinized by filtration through a 10-kDa cutoff spin filter (Millipore SAS, Molsheim, France). The assay was then performed according to the manufacturer's instructions. RNA was extracted from pancreas, adipose tissue and liver using the RNeasy RNA Mini Kit (Qiagen, Courtaboeuf, France). Reverse transcription was performed from a 20 μL reaction mixture with 500 ng RNA using M-MLV reverse transcriptase kit (ThermoFisher, Villebon, France). Quantitative RT-PCR was performed using sequence specific primers and the MESA green kit for SYBR green assays (Eurogentec, Angers, France). We used 18S and/or cyclophilin house keeping genes to normalize relative quantification of mRNA levels using the Livak and […] methods ([…], 2001).

Goto-Kakizaki (GK) rats = test: Chronic subcutaneous infusion in Goto-Kakizaki rats: body and organ weight, glucose homeostasis (IPGTT), insulin secretion; type: in vivo, rat
Method: The animal experiments on rats were conducted on diabetic adult 8 months aged male Goto-Kakizaki (GK) rats from the local colony of Paris-Diderot University (Paris, France). GK strain derived after backcrossing of animals selected at the upper limit of normal distribution for glucose tolerance. Characteristics of GK rats have been previously described. Rats had free access to a control carbohydrate diet (CHD) (D 12450Ki, Research diets, NJ) and were kept on 12 h light/dark cycle. […] Rats were killed by decapitation and blood and organs collected for measurement of metabolic parameters, islet isolation for quantitative RT-PCR analysis and immunohistochemistry. […] After three weeks of metabolite treatment (i.e. four weeks of HFD feeding) an intra-peritoneal glucose tolerance test (IPGTT) (2 g/kg) was performed in conscious mice following an overnight fast. Blood was collected from the tail vein before glucose injection and 15, 30, 60 and 120 minutes afterwards. Additional blood samples were collected during the IPGTT in GK rats 15, 90, 180 and 240 minutes after glucose injection. Blood glucose levels were determined using an Accu-Check® Performa (Roche Diagnostics, Meylan, France). Additional blood samples were collected at base line and 30 minutes after glucose injection in Microvette® CB 300 Lithium Heparin ([…], France). Plasma was separated by centrifugation and stored at -80° C. until insulin radioimmunoassay. Evaluation of overall glucose tolerance was obtained from cumulative glycemia (GCum) and the ΔG, which were determined by the total increment of plasma glucose values during the IPGTT (GCum) and the cumulative glycemia during the test above baseline (ΔG). After six weeks of metabolite treatment, mice were killed by decapitation and organ were dissected and weighed. Half of liver, fat and pancreas samples were snap frozen in liquid nitrogen and stored at -80° C. for molecular studies, and the second half processed for histopathology. All procedures were authorized following review by the institutional ethic committee and carried out under national license condition (Ref 00486.02). Blood glucose was measured using an Accu-Check® Performa (Roche Diagnostics, Meylan, France) and plasma insulin was determined using Insulin ELISA kits (Mercodia, Uppsala, Sweden). For determination of liver triglycerides, liver samples (100 mg) were homogenized and incubated in NonidetP-40 (5%) and supernatants containing triglycerides were collected. Triglycerides concentration was quantified in the supernatant fraction using a colorimetric assay (ab65336, Abcam, Paris, France) by measuring OD at 570 nm. The ratio NAD/NADH was determined using a quantification kit (MAK037; […] Samples were homogenized in the extraction buffer and clarified by centrifugation. Supernatant was deproteinized by filtration through a 10-kDa cutoff spin filter (Millipore SAS, Molsheim, France). The assay was then performed according to the manufacturer's instructions.

[1] = target: dual specificity tyrosine phosphorylation regulated kinase DYRK1A (Homo sapiens, UniProt Q13627); test: In vitro interaction analysis (DiscoverX) by determination of the EC50
[2] = CHD-fed mice, not statistically significant

Question: Which “expression of Ins1 and Hnf1α in pancreas” value (pancreas gene expression; [2]) does the source give for `Cc1ccc(O)cc1` [4-cresol] here?
Answer: Its value is “Enhanced expression”.

Question: What about the “expression of Ucp2 in pancreas” value (pancreas gene expression; [2]) of the same compound?
Answer: The value was “reduced expression”.

Question: And the “transcription of genes encoding amylase, Vegf, Bdnf, IL10 and Sirt1 in pancreas” value (pancreas gene expression; CHD-fed mice, vs saline-treated CHD-fed mice)?
Answer: Its value is “increased transcription”.

Question: And the “IL10 transcript level in pancreas” value (pancreas gene expression; HFD-fed mice)?
Answer: Its value is “remained elevated”.

Question: And the “expression of Bdnf, Hnf1α, Pdx1 and Vegf in pancreas” value (pancreas gene expression; HFD-fed mice, differences not statistically significant)?
Answer: Its value is “strongly overexpressed”.

Question: What about the “pancreatic expression of ERα” value (pancreas gene expression; fat fed mice in vivo) of the same compound?
Answer: Its value is “does not regulate significantly”.

Question: And the “expression of Ucp2, IL6 and Tnf in pancreas” value (pancreas gene expression; mice fed HFD, vs HFD saline)?
Answer: The value was “significantly reduced expression”.

Question: What about the “expression of genes encoding Sirt1 and Ins1 in pancreas” value (pancreas gene expression; mice fed HFD, vs HFD saline) of the same compound?
Answer: Its value is “significant overexpression”.

Question: What about the DYRK1A pancreatic transcription (pancreas gene expression; mice fed control or HFD, chronic treatment) of the same compound?
Answer: The DYRK1A pancreatic transcription was “significant downregulation”.

Question: And the fasting glycemia (Goto-Kakizaki (GK) rats)?
Answer: Its fasting glycemia is “significant reduction”.

Question: What about the “glycemic response to the glucose challenge throughout the IPGTT (glucose intolerance)” value (Goto-Kakizaki (GK) rats) of the same compound?
Answer: The value was “decrease”.

Question: And the cumulative glycemia (Goto-Kakizaki (GK) rats; IPGTT)?
Answer: The cumulative glycemia was “significant drop”.

Question: What about the “increase in pancreas weight” value (Goto-Kakizaki (GK) rats; P<0.01) of the same compound?
Answer: Its value is “+94.6%”.

Question: And the BMI (Goto-Kakizaki (GK) rats; chronic administration 6 weeks)?
Answer: Its BMI is “no effect”.

Question: And the body weight (Goto-Kakizaki (GK) rats; chronic administration 6 weeks)?
Answer: Its body weight is “no effect”.

Question: And the fasting insulinemia (Goto-Kakizaki (GK) rats; vs saline)?
Answer: The fasting insulinemia was “significantly more elevated”.

Question: And the “glucose-induced insulin secretion during the IPGTT” value (Goto-Kakizaki (GK) rats; vs saline)?
Answer: Its value is “significantly more elevated”.

Question: What about the “binding to DYRK1A” value [1] of the same compound?
Answer: Its value is “does bind”.

— patent publication US11491117B2, “Compounds for the prevention and treatment of glucose intolerance related conditions and obesity” (SORBONNE UNIVERSITÉ, priority 2017, dated 2022)
